The record followed here is ChEMBL document CHEMBL1921755, “The synthesis of xanthones, xanthenediones, and spirobenzofurans: their antibacterial and antifungal activity” (2011).

Values after ≈ are worked out from the molar mass of the structure shown. Bounds are passed on as bounds.

Common to all, as to assay type: functional
For test [1], the system named is Bacillus cereus. Kind of test: Antibacterial activity against Bacillus cereus ATCC 11778.
Test [2] concerns Staphylococcus aureus. Kind of test: Antibacterial activity against Staphylococcus aureus ATCC 2587.
Test [3] deals with Escherichia coli. As to the kind of experiment: Antibacterial activity against Escherichia coli ATCC 8739.
The test system of test [4] is Moraxella catarrhalis. As to the kind of experiment: Antibacterial activity against Moraxella catarrhalis […].
Test [5] deals with Cryptococcus neoformans. As to the kind of experiment: Antifungal activity against Cryptococcus neoformans ATCC 90112.
For test [6], the system named is Candida albicans. Kind of test: Antifungal activity against Candida albicans ATCC 10231.
Test [7] concerns Bacillus subtilis. As to the kind of experiment: Antibacterial activity against Bacillus subtilis.
Test [8] has as its system Candida albicans. As to the kind of experiment: Antifungal activity against Candida albicans.
The test system of test [9] is Nakaseomyces glabratus. Kind of test: Antifungal activity against Candida glabrata.

As a reminder, the MIC is the least concentration at which growth counts as inhibited. Low values mean a more susceptible organism, high ones a less susceptible organism. On to `COc1cc2oc3ccccc3c(=O)c2cc1OC`, for which the MIC in [1] turned out to be 46.9 µg/mL (≈ 183 µM); in [2], 62.5 µg/mL (≈ 244 µM); in test [3] it was 125 µg/mL (≈ 488 µM); in test [4], 125 µg/mL (≈ 488 µM); in [5] it was 31.3 µg/mL (≈ 122 µM); in [6], 31.3 µg/mL (≈ 122 µM).
Consider `COc1ccc2oc3ccccc3c(=O)c2c1`, for which the MIC in test [1] is 312 µg/mL (≈ 1380 µM); in test [2], 156 µg/mL (≈ 690 µM); in test [3] it was 312 µg/mL (≈ 1380 µM); in test [4], 625 µg/mL (≈ 2760 µM); in [5] it was 78.1 µg/mL (≈ 345 µM); in [6] it was 156 µg/mL (≈ 690 µM).
In the case of `COC12C=CC(=O)C=C1C(=O)c1ccccc1O2` (centres undefined), the MIC in [1] came out at 31.3 µg/mL (≈ 129 µM); in test [2] it was 93.7 µg/mL (≈ 387 µM); in [3], 125 µg/mL (≈ 516 µM); in test [4], 125 µg/mL (≈ 516 µM); in [5], 3.6 µg/mL (≈ 14.9 µM); in test [6] it was 3.6 µg/mL (≈ 14.9 µM).
Take `COc1c(O)ccc2oc3ccccc3c(=O)c12`: the MIC came out at 31.3 µg/mL (≈ 129 µM) in test [1]; 125 µg/mL (≈ 516 µM) in test [2]; 125 µg/mL (≈ 516 µM) in test [3]; 125 µg/mL (≈ 516 µM) in [4]; 15.6 µg/mL (≈ 64.4 µM) in [5]; 31.3 µg/mL (≈ 129 µM) in test [6].
Turning to `COC12C=CC(=O)C=C1C(=O)c1cc(Br)ccc1O2` (centres undefined), the MIC was 31.3 µg/mL (≈ 97.5 µM) in [1]; 62.5 µg/mL (≈ 195 µM) in test [2]; 62.5 µg/mL (≈ 195 µM) in [3]; 125 µg/mL (≈ 389 µM) in test [4]; 15.6 µg/mL (≈ 48.6 µM) in [5]; 7.8 µg/mL (≈ 24.3 µM) in [6].
In the case of `O=c1c2cc(O)ccc2oc2ccc(Br)cc12`, the MIC in test [1] was 31.3 µg/mL (≈ 108 µM); in [2], 250 µg/mL (≈ 859 µM); in test [3], 125 µg/mL (≈ 429 µM); in test [4], more than 250 µg/mL; in test [5], 11.7 µg/mL (≈ 40.2 µM); in test [6], 31.3 µg/mL (≈ 108 µM).
`COC1=CC2(OC)Oc3ccc(Br)cc3C(=O)C2=CC1=O` (centres undefined): the MIC in [1] turned out to be 31.3 µg/mL (≈ 89.1 µM); in [2], 62.5 µg/mL (≈ 178 µM); in test [3], 188 µg/mL (≈ 534 µM); in test [4] it was 125 µg/mL (≈ 356 µM); in test [5] it was 15.6 µg/mL (≈ 44.4 µM); in test [6] it was 31.3 µg/mL (≈ 89.1 µM).
With `COC1=CC2(Oc3ccc(Br)cc3C2=O)C(OC)=CC1=O` (centres undefined), the MIC in test [1] is 31.3 µg/mL (≈ 89.1 µM); in test [2], 62.5 µg/mL (≈ 178 µM); in test [3] it was 62.5 µg/mL (≈ 178 µM); in [4], 125 µg/mL (≈ 356 µM); in test [5] it was 15.6 µg/mL (≈ 44.4 µM); in test [6] it was 31.3 µg/mL (≈ 89.1 µM).
Turning to `COc1cc2oc3ccc(Br)cc3c(=O)c2cc1O`, the MIC came to 31.3 µg/mL (≈ 97.5 µM) in [1]; 62.5 µg/mL (≈ 195 µM) in test [2]; 125 µg/mL (≈ 389 µM) in [3]; 125 µg/mL (≈ 389 µM) in [4]; 15.6 µg/mL (≈ 48.6 µM) in test [5]; 31.3 µg/mL (≈ 97.5 µM) in [6].
Take `COC1=CC2(Oc3ccc(-c4ccccc4)cc3C2=O)C(OC)=CC1=O` (centres undefined): the MIC in test [1] is 46.9 µg/mL (≈ 135 µM); in test [2], 62.5 µg/mL (≈ 179 µM); in test [3], 125 µg/mL (≈ 359 µM); in test [4], more than 250 µg/mL; in [5], 23.4 µg/mL (≈ 67.2 µM); in [6], 31.3 µg/mL (≈ 89.9 µM).
For `COC1=CC2(Oc3ccc(-c4ccccc4C=O)cc3C2=O)C(OC)=CC1=O` (centres undefined), the MIC in test [1] is 15.6 µg/mL (≈ 41.4 µM); in [2], 15.6 µg/mL (≈ 41.4 µM); in test [3] it was 62.5 µg/mL (≈ 166 µM); in test [4], 125 µg/mL (≈ 332 µM); in [5], 15.6 µg/mL (≈ 41.4 µM); in test [6], 31.3 µg/mL (≈ 83.2 µM).
Take `COC12Oc3ccccc3C(=O)C1=CC(=O)c1ccccc12` (centres undefined): the MIC in test [1] was 19.5 µg/mL (≈ 66.7 µM); in [2], 78.1 µg/mL (≈ 267 µM); in test [3], 156 µg/mL (≈ 534 µM); in test [4] it was 78.1 µg/mL (≈ 267 µM); in [5] it was 19.5 µg/mL (≈ 66.7 µM); in test [6] it was 78.1 µg/mL (≈ 267 µM).
In the case of `COC12Oc3ccc(Cl)cc3C(=O)C1=CC(=O)c1ccccc12` (centres undefined), the MIC in test [1] was determined as 78.1 µg/mL (≈ 239 µM); in test [2], 19.5 µg/mL (≈ 59.7 µM); in test [3], 469 µg/mL (≈ 1430 µM); in test [4], 312 µg/mL (≈ 956 µM); in test [5], 29.2 µg/mL (≈ 89.4 µM); in [6], 469 µg/mL (≈ 1430 µM).
Consider `COC1=CC2(Oc3ccc(Cl)cc3C2=O)C(OC)=CC1=O` (centres undefined), for which the MIC was 156 µg/mL (≈ 509 µM) in test [1]; 156 µg/mL (≈ 509 µM) in test [2]; 312 µg/mL (≈ 1020 µM) in test [3]; 312 µg/mL (≈ 1020 µM) in test [4]; 39 µg/mL (≈ 127 µM) in [5]; 156 µg/mL (≈ 509 µM) in test [6].
Regarding `COc1cc2oc3ccc(Cl)cc3c(=O)c2cc1OC`, the MIC in test [1] was found to be 312 µg/mL (≈ 1070 µM); in [2] it was 117 µg/mL (≈ 403 µM); in [3] it was 312 µg/mL (≈ 1070 µM); in test [4] it was 625 µg/mL (≈ 2150 µM); in test [5] it was 78.1 µg/mL (≈ 269 µM); in test [6], 156 µg/mL (≈ 537 µM).
On to `COC1=CC2(OC)Oc3ccc(Cl)cc3C(=O)C2=CC1=O` (centres undefined), for which the MIC stood at 39 µg/mL (≈ 127 µM) in [1]; 39 µg/mL (≈ 127 µM) in test [2]; 156 µg/mL (≈ 509 µM) in test [3]; 156 µg/mL (≈ 509 µM) in test [4]; 15.6 µg/mL (≈ 50.9 µM) in test [5]; 20.8 µg/mL (≈ 67.8 µM) in test [6].
Consider `COc1ccc2oc3ccc(Cl)cc3c(=O)c2c1`, for which the MIC in test [1] was 625 µg/mL (≈ 2400 µM); in test [2], 234 µg/mL (≈ 899 µM); in test [3], 625 µg/mL (≈ 2400 µM); in test [4] it was 1250 µg/mL (≈ 4800 µM); in test [5], 156 µg/mL (≈ 599 µM); in test [6] it was 234 µg/mL (≈ 899 µM).
As for `COC12C=CC(=O)C=C1C(=O)c1cc(Cl)ccc1O2` (centres undefined), the MIC stood at 156 µg/mL (≈ 565 µM) in test [1]; 156 µg/mL (≈ 565 µM) in [2]; 312 µg/mL (≈ 1130 µM) in test [3]; 156 µg/mL (≈ 565 µM) in [4]; 7.8 µg/mL (≈ 28.2 µM) in test [5]; 156 µg/mL (≈ 565 µM) in test [6].
Molecule `CC1(C)C=Cc2c(cc3oc4c(O)cccc4c(=O)c3c2O)O1` yielded an MIC in test [7] of 4.6 µM (≈ 1.43 µg/mL).
For the molecule `O=C(O)c1cn(C2CC2)c2cc(N3CCNCC3)c(F)cc2c1=O` [CIPROFLOXACIN], the MIC in [1] was 0.08 µg/mL (≈ 0.241 µM); in test [2], 1.25 µg/mL (≈ 3.77 µM); in test [4] it was 1.25 µg/mL (≈ 3.77 µM).
On to `COC1=CC(=O)C[C@@H](C)[C@]12Oc1c(Cl)c(OC)cc(OC)c1C2=O` [GRISEOFULVIN], for which the lowest concentration to inhibit growth in test [8] (MIC) was 20 µg/mL (≈ 56.7 µM).
Molecule `CC(C)=CCc1cccc2c(=O)c3c(O)cc4c(c3oc12)C=CC(C)(C)O4` [LAURENTIXANTHONE A] displayed an MIC in [9] of 2.44 µM (≈ 0.884 µg/mL).
